Reference: US7531676B2, “Lipids” (Celltech R & D Limited, priority 1999, dated 2009)
Where a name gives a salt, the structure may show the parent alone.

Key:
[1] = tested on: Chinese Hamster Ovary (CHO) cells; experiment: CHO transfection with lipid condensed DNA, beta-galactosidase reporter; format: cell-based; settings: for β-galactosidase in cell extract mUnits per mg protein: CHO cells, Lipid:DNA mass ratio 8:1, pEG/acZ plasmid; for β-galactosidase expression in the CHO cells (in words): lipid condensed DNA versus non-condensed DNA control (undetectable)
Description: Plasmid DNA (pEG/acZ) was prepared at concentrations of typically 60 or 120 μg/ml in water. Solutions of lipids according to the invention were prepared in water over a range of concentrations (typically 30 to 960 μg/ml). An equal volume of DNA was added dropwise to a tube containing a solution of the lipids whilst vortexing the tube.
Chinese Hamster Ovary (CHO) cells were seeded in to 24 well plates at 100,000 cells per well 24 h before experiment. Cells were washed once in Optimem™ medium prior to transfection. Wash medium was removed and replaced with 0.5 ml of Optimem™ to which the required amount of lipid condensed DNA was added (typically 1 to 5 μg DNA equivalent). Usually three replicate transfection wells were set up per condensed DNA sample tested. Cells were incubated for a further 34 h at 37° C., 5% CO2 before removal of the complex and additon of 1 ml of fresh medium (Iscoves™ medium: modified DMEM plus glutamate, asparagine, adenosine, guanosine, cytidine, uridine, thymidine and 10% dialysed foetal calf serum). Cells were cultured for a further 48-72 hours before harvesting and assay. Levels of Beta galactosidase reporter gene activity were determined using an enzyme assay system from Promega as follows. Cells were washed twice with I ml of phosphate buffered saline and solubilised in 200 ul of 1× cell lysis buffer. 50 ul of cell extract was incubated with the provided buffer and substrate o-nitrophenyl-β-D-galactopyranoside and the optical density measured spectrophoto-metrically. Levels of β-gal expression were quantitated by reference to the standard curve and related to the amount of protein in the extract (measured using the BCA assay kit from Pierce) to give a final value expressed as mU of β-gal per mg of protein.

protease XIV (pronase) = experiment: Pronase treatment of lipid/DNA complexes, plasmid integrity by gel; settings: protease XIV 150 μg/ml, 30 min at 37° C.
Source text: (§1) One of the ultimate goals of current gene therapy research is to develop a delivery system which will remain stable and effective in vivo, since this would remove the need for expensive and time-consuming ex-vivo manipulations. Since intravenous administration offers the possibility of delivery to the largest number of tissue sites, survival of the gene delivery complex in the presence of serum could be an important feature of any effective technology. Many published studies have demonstated the susceptibility of gene delivery complexes to inactivation by serum even at levels as low as 10%. This effect is due, at least in part, to the destabilisation of complexes by a poorly understood mechanism, and this can lead to degradation of the DNA within the complex by serum-associated nucleases. We have therefore formed complexes between the lipids of the invention and plasmid DNA and subjected these to treatment with purified DNase and pronase as well as with 50% foetal calf serum. Integrity of the plasmid DNA was then measured.
(§2) Plasmid DNA (pEG/acZ) was prepared at a concentration of 120 μg/ml in water. […] Finally, all samples were analysed by electrophoresis on 0.8% agarose gels.

DNase I = experiment: DNase treatment of lipid/DNA complexes, plasmid integrity by gel; settings: charge ratio of at least 2:1; DNase I 1 unit/1 μg DNA, 37° C., 10 minutes
Source text: as §1, §2

Plasmid DNA (pEG/acZ) = experiment: Agarose gel electrophoresis of lipid/plasmid DNA complexes (DNA retardation/condensation); format: binding
Description: Plasmid DNA (pEG/acZ) was prepared at a concentration of 120 μg/ml in water. A lipid according to the invention [for example the hexamine H18 described in the Example above] was prepared in a range of concentrations such that charge ratios of lipid:DNA of 0.25:1, 1:1, 2:1, 4:1, 8:1 would be obtained (based on the assumption that DNA at 120 μg/ml is equivalent to 0.387 mM of negative charge, and the hexamine H18 for example at 10 mg/ml is equivalent to 36.23 mM of positive charge). An equal volume of DNA was added dropwise to a vortexing tube containing the lipid in water. For DNase treatment, DNase I (FPLCpure, Pharmacia) was added at a concentration of 1 unit/1 μg of DNA and tubes were incubated at 37° C. for 10 minutes. To inhibit further action of DNase, EGTA was added to a final concentration of 25 mM. For pronase treatment, protease XIV (Sigma) was added to samples to a final concentration of 150 μg/ml, and samples incubated for 30 min at 37° C. Complexes were disrupted in 0.5% SDS with incubation at 55° C. for 20 min. Serum treatment involved incubating the samples in the presence of 50% foetal calf serum (final concentration) for 30 min at 37° C. EGTA was added to a final concentration of 50 mM in an attempt to prevent subsequent action of serum-associated nucleases. Finally, all samples were analysed by electrophoresis on 0.8% agarose gels.

SMILES | β-galactosidase in cell extract mUnits per mg protein [1] [mUnits per mg protein] | β-galactosidase expression in the CHO cells (in words) [1] | resistance of lipid/DNA condensates to treatment by pronase (protease XIV (pronase)) | resistance of condensed DNA to treatment by DNase (DNase I) | mobility of plasmid DNA through gel (Plasmid DNA (pEG/acZ); charge ratio of 2:1 (H18:DNA), 0.8% agarose gel) | visibility of plasmid DNA by ethidium bromide fluorescence (DNA fully condensed) (Plasmid DNA (pEG/acZ); charge ratios higher than 2:1)
NCCCCNCC(CCCCCCNC(=O)CCCCCCCCCCCCCCCCCCCCCCCNC(=O)[C@H](O)[C@H](O)[C@H](O)[C@H](O)CO)CNCCCCN (stereo in doubt) [Lipid H3, (trifluoroacetate) salt] | 11 ± 4 | significant β-galactosidase expression | – | – | – | –
NCCCNCCCCNCC(CCCCCCNC(=O)CCCCCCCCCCCCCCCCCCCCCCCNC(=O)[C@H](O)[C@@H](O)[C@H](O)[C@H](O)CO)CNCCCCNCCCN (stereo in doubt) [Lipid H18, (trifluoroacetate) salt] | 40 ± 9 | significant β-galactosidase expression | resistant | resistant | no DNA entered the gel | no longer visible
